Measured values published in ChEMBL document CHEMBL1201862, “PubChem BioAssay data set” (2004).
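Cells were grown in 96-well plates and exposed to each compound for 48 hours at five concentrations; endpoints were interpolated linearly between bracketing concentrations, or set to the highest concentration if not reached. The concentration for 50% growth inhibition is given as GI50.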 Active and inactive are the calls of the source. Cut-off read from the data, not from the text of the source: active = GI50 up to about 1.1 µM and inactive = higher.

Tests used:
Assay in all cases: NCI anticancer screen, dose series, 48 h
[1] = test system: NCI-H226
[2] = test system: SK-MEL-28
[3] = test system: SNB-75
[4] = test system: RXF 393
[5] = test system: EKVX
[6] = test system: K562
[7] = test system: UO-31
[8] = test system: NCI-H23
[9] = test system: A549
[10] = test system: NCI-H460
[11] = test system: SK-MEL-2
[12] = test system: HCT-116
[13] = test system: HL-60
[14] = test system: SF-268
[15] = test system: OVCAR-3
[16] = test system: OVCAR-8
[17] = test system: Malme-3M
[18] = test system: HCT-15

Row | SMILES | GI50 [1] | GI50 [2] | GI50 [3] | GI50 [4] | GI50 [5] | GI50 [6] | GI50 [7] | GI50 [8] | GI50 [9] | GI50 [10] | GI50 [11] | GI50 [12] | GI50 [13] | GI50 [14] | GI50 [15] | GI50 [16] | GI50 [17] | GI50 [18]
1 | C[C@H](C(=O)C12CC3CC(CC(C3)C1)C2)[C@H](O)c1ccccc1 | 16.8 µM (inactive) | 17.6 µM (inactive) | 27 µM (inactive) | 20.1 µM (inactive) | 43.7 µM (inactive) | 39.4 µM (inactive) | 29 µM (inactive) | 36.7 µM (inactive) | 40.7 µM (inactive) | 35.2 µM (inactive) | 19 µM (inactive) | 16.1 µM (inactive) | 23.1 µM (inactive) | 15.2 µM (inactive) | 22.4 µM (inactive) | 33.5 µM (inactive) | – | –
2 | CC12CC(Sc3ccccc3N1)c1ccccc1O2 (configuration not stated) | – | 16.7 µM (inactive) | 28.2 µM (inactive) | 15.9 µM (inactive) | 18.6 µM (inactive) | 14.3 µM (inactive) | 14.1 µM (inactive) | 15.7 µM (inactive) | 18.8 µM (inactive) | 16.6 µM (inactive) | 12.8 µM (inactive) | 15.2 µM (inactive) | 11 µM (inactive) | 16.1 µM (inactive) | 16.4 µM (inactive) | 17.9 µM (inactive) | 16.1 µM (inactive) | 15.6 µM
3 | O=C1Nc2ccccc2C12CCCC2 | – | > 100 µM (inactive) | 54.6 µM (inactive) | > 100 µM (inactive) | 72.3 µM (inactive) | > 100 µM (inactive) | > 100 µM (inactive) | > 100 µM (inactive) | > 100 µM (inactive) | > 100 µM (inactive) | > 100 µM (inactive) | > 100 µM (inactive) | > 100 µM (inactive) | > 100 µM (inactive) | > 100 µM (inactive) | > 100 µM (inactive) | > 100 µM (inactive) | > 100 µM
4 | COc1c(C)c2c(c(C)c1Cl)Oc1c(C=O)c(O)c(Cl)c(C)c1C(=O)O2 | 28.7 µM (inactive) | – | 23.4 µM (inactive) | – | 17.9 µM (inactive) | 26.8 µM (inactive) | – | 21.1 µM (inactive) | 33.7 µM (inactive) | 32.3 µM (inactive) | – | 23 µM (inactive) | 22.3 µM (inactive) | 27.8 µM (inactive) | 11.7 µM (inactive) | 36.7 µM (inactive) | 23.2 µM (inactive) | –
5 | Cc1cn(C2CC(O)C(CO)O2)c(=O)n2nnnc12 (configuration not stated) | > 100 µM (inactive) | > 100 µM (inactive) | > 100 µM (inactive) | – | > 100 µM (inactive) | > 100 µM (inactive) | > 100 µM (inactive) | > 100 µM (inactive) | > 100 µM (inactive) | > 100 µM (inactive) | > 100 µM (inactive) | > 100 µM (inactive) | > 100 µM (inactive) | > 100 µM (inactive) | > 100 µM (inactive) | > 100 µM (inactive) | > 100 µM (inactive) | > 100 µM
6 | Cn1c2c(c3ccccc31)CCN(CCCCN1CCc3c(n(C)c4ccccc34)C1=O)C2 | – | > 100 µM (inactive) | 88.1 µM (inactive) | > 100 µM (inactive) | > 100 µM (inactive) | > 100 µM (inactive) | > 100 µM (inactive) | > 100 µM (inactive) | > 100 µM (inactive) | > 100 µM (inactive) | > 100 µM (inactive) | > 100 µM (inactive) | > 100 µM (inactive) | > 100 µM (inactive) | > 100 µM (inactive) | > 100 µM (inactive) | > 100 µM (inactive) | > 100 µM
7 | CC(=O)Nc1ccc(-c2nnc(SCC(=O)Nc3ccccc3Cl)o2)cc1 | > 100 µM (inactive) | > 100 µM (inactive) | > 100 µM (inactive) | > 100 µM (inactive) | – | > 100 µM (inactive) | > 100 µM (inactive) | > 100 µM (inactive) | > 100 µM (inactive) | > 100 µM (inactive) | > 100 µM (inactive) | 44.1 µM (inactive) | > 100 µM (inactive) | > 100 µM (inactive) | 93.1 µM (inactive) | > 100 µM (inactive) | > 100 µM (inactive) | > 100 µM
8 | CN(C)CCC(=O)N1CCc2c([nH]c3ccccc23)C1c1cccnc1 (configuration not stated) | – | 54.2 µM (inactive) | 78.3 µM (inactive) | 0.192 µM (active) | > 100 µM (inactive) | > 100 µM (inactive) | 41.6 µM (inactive) | > 100 µM (inactive) | > 100 µM (inactive) | > 100 µM (inactive) | – | > 100 µM (inactive) | > 100 µM (inactive) | > 100 µM (inactive) | > 100 µM (inactive) | > 100 µM (inactive) | – | > 100 µM
9 | COc1ccc2nccc(C3OC(=O)N4CCC(=O)CC34)c2c1 (configuration not stated) | > 100 µM (inactive) | > 100 µM (inactive) | – | > 100 µM (inactive) | > 100 µM (inactive) | > 100 µM (inactive) | > 100 µM (inactive) | > 100 µM (inactive) | > 100 µM (inactive) | > 100 µM (inactive) | > 100 µM (inactive) | > 100 µM (inactive) | > 100 µM (inactive) | > 100 µM (inactive) | > 100 µM (inactive) | > 100 µM (inactive) | – | > 100 µM
10 | O=C1/C=C(/c2ccc(O)cc2)[C@@H](OC2OC(CO)C(O)C(O)C2O)Cc2ccc(O)cc2O1.O=C1/C=C(/c2ccc(O)cc2)[C@H](O)Cc2ccc(O[C@@H]3OC(CO)C(O)C(O)C3O)cc2O1 (some centres not stated) | > 100 µM (inactive) | – | – | – | > 100 µM (inactive) | – | > 100 µM (inactive) | > 100 µM (inactive) | > 100 µM (inactive) | > 100 µM (inactive) | > 100 µM (inactive) | > 100 µM (inactive) | 4.91 µM (inactive) | > 100 µM (inactive) | > 100 µM (inactive) | > 100 µM (inactive) | > 100 µM (inactive) | > 100 µM
11 | CC(=O)OC1CCn2nnc(COC(=O)NC(C)C)c21 (configuration not stated) | > 100 µM (inactive) | > 100 µM (inactive) | > 100 µM (inactive) | > 100 µM (inactive) | > 100 µM (inactive) | > 100 µM (inactive) | > 100 µM (inactive) | > 100 µM (inactive) | > 100 µM (inactive) | > 100 µM (inactive) | > 100 µM (inactive) | > 100 µM (inactive) | – | – | > 100 µM (inactive) | > 100 µM (inactive) | > 100 µM (inactive) | > 100 µM
12 | C[C@H](NC(=O)n1c2ccccc2c2ccccc21)C(=O)O | > 100 µM (inactive) | > 100 µM (inactive) | – | > 100 µM (inactive) | > 100 µM (inactive) | > 100 µM (inactive) | – | > 100 µM (inactive) | > 100 µM (inactive) | > 100 µM (inactive) | > 100 µM (inactive) | > 100 µM (inactive) | > 100 µM (inactive) | > 100 µM (inactive) | > 100 µM (inactive) | > 100 µM (inactive) | > 100 µM (inactive) | > 100 µM
13 | CCOC(=O)C(=O)Nc1ccccc1C(F)(F)F | > 100 µM (inactive) | > 100 µM (inactive) | 79.4 µM (inactive) | > 100 µM (inactive) | > 100 µM (inactive) | – | > 100 µM (inactive) | > 100 µM (inactive) | > 100 µM (inactive) | > 100 µM (inactive) | > 100 µM (inactive) | > 100 µM (inactive) | – | > 100 µM (inactive) | > 100 µM (inactive) | > 100 µM (inactive) | > 100 µM (inactive) | > 100 µM
